Structures are written as SMILES. Where a SMILES comes first, the peptide text is derived from it. Bridges are numbered along the chain shown (N, C = ends). [ ]: non-standard residue; d: D form. The star is where a group is joined. 2Nal = N[C@@H](Cc1ccc2ccccc2c1)C(=O)O; N(Me)CH2CH2Ph = CN(CCc1ccccc1)*; pGlu = O=C1CC[C@@H](C(=O)O)N1; NHPhenethyl = c1ccc(CCN*)cc1; d(hCys) = N[C@H](CCS)C(=O)O; dNle = CCCC[C@@H](N)C(=O)O; dNva = CCC[C@@H](N)C(=O)O; hCys = N[C@@H](CCS)C(=O)O; Nle = CCCC[C@H](N)C(=O)O; dAbu = CC[C@@H](N)C(=O)O

Drawing on patent US9683019B2, “Cyclic polypeptides for the treatment of heart failure” (priority 2013, dated 2017), this text covers half-life for 19 compounds.

A short description of one data set: Surrogate Activity-Based Plasma Stability Assay. It counts as in vitro ADME. The conditions noted are these: rat. The text has this: Surrogate Activity-Based Plasma Stability Assay:
2) Calculate slope of value above and […]
For the compound `CCCC[C@@H](NC(=O)[C@@H]1CCCN1C(=O)CNC(=O)[C@H](CCCCN)NC(=O)[C@@H]1CCSSC[C@@H](NC(C)=O)C(=O)N[C@@H](CCCNC(=N)N)C(=O)N2CCC[C@H]2C(=O)N[C@@H](CCCNC(=N)N)C(=O)N[C@@H](CC(C)C)C(=O)N[C@@H](CO)C(=O)N1)C(=O)N[C@H](C)C(=O)N[C@H](Cc1ccccc1)C(=O)O` [Example 19, Ac-c-R-P-R-L-S-(hC)-K-G-P-(D-Nle)-a-f-OH] (Ac-[dC]RPRLS[hCys]KGP[dNle][dA][dF]-OH; disulfide 1-7 (inferred)), the half-life came out at 50 min.

In turn, `CCCC[C@H](NC(=O)[C@@H]1CCCN1C(=O)CNC(=O)[C@H](CCCCN)NC(=O)[C@@H]1CCSSCC[C@H](NC(C)=O)C(=O)N[C@@H](CCCNC(=N)N)C(=O)N2CCC[C@H]2C(=O)N[C@@H](CCCNC(=N)N)C(=O)N[C@@H](CC(C)C)C(=O)N[C@@H](CO)C(=O)N1)C(=O)N1CCC[C@H]1C(=O)N[C@@H](Cc1ccccc1)C(=O)O` [Example 7, Ac-hC*-R-P-R-L-S-hC*-K-G-P-Nle-P-F-OH] (Ac-[hCys]RPRLS[hCys]KGP[Nle]PF-OH; disulfide 1-7) registered a half-life of 9 min. Still for that read-out and setting: the result for `CCCC[C@H](NC(=O)[C@@H]1CCCN1C(=O)CNC(=O)[C@H](CCCCN)NC(=O)[C@@H]1CSSC[C@H](NC(C)=O)C(=O)N[C@@H](CCCNC(=N)N)C(=O)N2CCC[C@H]2C(=O)N[C@@H](CCCNC(=N)N)C(=O)N[C@@H](CC(C)C)C(=O)N[C@@H](CO)C(=O)N1)C(=O)N1CCC[C@H]1C(=O)NCCc1ccccc1` [Example 2, Ac-C*-R-P-R-L-S-C*-K-G-P-Nle-P-NH(Phenethyl)] (Ac-CRPRLSCKGP[Nle]P-NHPhenethyl; disulfide 1-7) reads 39 min. Still for that read-out and setting: the result for `CCCC[C@H](NC(=O)[C@@H]1CCCN1C(=O)CNC(=O)[C@H](CCCCN)NC(=O)[C@@H]1CSSC[C@H](NC(=O)[C@H](CCCNC(=N)N)NC(=O)[C@@H]2CCC(=O)N2)C(=O)N[C@@H](CCCNC(=N)N)C(=O)N[C@@H](CC(C)C)C(=O)N[C@@H](CO)C(=O)N1)C(=O)N1CCC[C@H]1C(=O)N[C@@H](Cc1ccccc1)C(=O)O` [Example 20, pE-R-C*-R-L-S-C*-K-G-P-Nle-P-F-OH] ([pGlu]RCRLSCKGP[Nle]PF-OH; disulfide 3-7) reads 11.9 min; that for `CCCC[C@H](NC(=O)[C@@H]1CCCN1C(=O)CNC(=O)[C@H](CCCCN)NC(=O)[C@@H]1CSSC[C@H](NC(C)=O)C(=O)N[C@@H](CCCNC(=N)N)C(=O)N2CCC[C@H]2C(=O)N[C@@H](CCCNC(=N)N)C(=O)N[C@@H](CC(C)C)C(=O)N[C@@H](CO)C(=O)N1)C(=O)N1CCC[C@H]1C(=O)N[C@@H](Cc1ccc2ccccc2c1)C(=O)O` [Example 5, Ac-C*-R-P-R-L-S-C*-K-G-P-Nle-P-Nal-OH] (Ac-CRPRLSCKGP[Nle]P[2Nal]-OH; disulfide 1-7), 5 min. As for `CCCC[C@@H](NC(=O)[C@@H]1CCCN1C(=O)[C@H](C)NC(=O)[C@H](CCCCN)NC(=O)[C@@H]1CSSC[C@H](NC(=O)[C@H](CCCNC(=N)N)NC(=O)[C@@H]2CCC(=O)N2)C(=O)N[C@@H](CCCNC(=N)N)C(=O)N[C@@H](CC(C)C)C(=O)N[C@@H](CO)C(=O)N1)C(=O)N[C@H](C)C(=O)N[C@H](Cc1ccccc1)C(=O)O` [Example 24, pE-R-C*-R-L-S-C*-K-A-P-(D-Nle)-a-f-OH] ([pGlu]RCRLSCKAP[dNle][dA][dF]-OH; disulfide 3-7), the half-life amounted to 1700 min.

In turn, `CC(C)C[C@@H]1NC(=O)[C@H](CCCNC(=N)N)NC(=O)[C@@H](NC(=O)[C@H](CCCNC(=N)N)NC(=O)[C@@H]2CCC(=O)N2)CSSCC[C@H](C(=O)N[C@@H](CCCCN)C(=O)NCC(=O)N2CCC[C@H]2C(=O)N[C@H](Cc2ccccc2)C(=O)N[C@H](C)C(=O)N[C@H](Cc2ccccc2)C(=O)O)NC(=O)[C@H](CO)NC1=O` [Example 26, pE-R-C*-R-L-S-(D-hC)*-K-G-P-f-a-f-OH] ([pGlu]RCRLS[d(hCys)]KGP[dF][dA][dF]-OH; disulfide 3-7) returned a half-life of 52 min. As for `CCCC[C@@H](NC(=O)[C@@H]1CCCN1C(=O)CNC(=O)[C@H](CCCCN)NC(=O)[C@@H]1CSSC[C@H](NC(=O)[C@@H]2CCCN2C(=O)[C@H](CCCNC(=N)N)NC(=O)[C@@H]2CCC(=O)N2)C(=O)N[C@@H](CC(C)C)C(=O)N[C@@H](CO)C(=O)N1)C(=O)N[C@H](C)C(=O)N[C@H](Cc1ccccc1)C(=O)O` [Example 33, pE-R-P-C*-L-S-C*-K-G-P-(D-Nle)-a-f-OH] ([pGlu]RPCLSCKGP[dNle][dA][dF]-OH; disulfide 4-7), the half-life was over 1000 min.

With `CCCC[C@H](NC(=O)[C@@H]1CCCN1C(=O)CNC(=O)[C@H](CCCCN)NC(=O)[C@H]1CSSC[C@@H](NC(C)=O)C(=O)N[C@@H](CCCNC(=N)N)C(=O)N2CCC[C@H]2C(=O)N[C@@H](CCCNC(=N)N)C(=O)N[C@@H](CC(C)C)C(=O)N[C@@H](CO)C(=O)N1)C(=O)N1CCC[C@H]1C(=O)N[C@@H](Cc1ccccc1)C(=O)O` [Example 14, Ac-c*-R-P-R-L-S-c*-K-G-P-Nle-P-F-OH] (Ac-[dC]RPRLS[dC]KGP[Nle]PF-OH; disulfide 1-7), the half-life amounted to 7.5 min. The compound `CCCC[C@@H](NC(=O)[C@@H]1CCCN1C(=O)[C@@H](C)NC(=O)[C@H](CCCCN)NC(=O)[C@@H]1CSSC[C@H](NC(=O)[C@H](CCCNC(=N)N)NC(=O)[C@@H]2CCC(=O)N2)C(=O)N[C@@H](CCCNC(=N)N)C(=O)N[C@@H](CC(C)C)C(=O)N[C@@H](CO)C(=O)N1)C(=O)N[C@H](C)C(=O)N[C@H](Cc1ccccc1)C(=O)O` [Example 23, pE-R-C*-R-L-S-C*-K-a-P-(D-Nle)-a-f-OH] ([pGlu]RCRLSCK[dA]P[dNle][dA][dF]-OH; disulfide 3-7) gave a half-life of 3160 min.

In turn, `CCCC[C@@H](NC(=O)[C@@H]1CCCN1C(=O)CNC(=O)[C@H](CCCCN)NC(=O)[C@@H]1CSSC[C@H](NC(=O)[C@H](CCCNC(=N)N)NC(=O)[C@@H]2CCC(=O)N2)C(=O)N[C@@H](CCCNC(=N)N)C(=O)N[C@@H](CC(C)C)C(=O)N[C@@H](CO)C(=O)N1)C(=O)N[C@H](C)C(=O)N[C@H](Cc1ccccc1)C(=O)O` [Example 21, pE-R-C*-R-L-S-C*-K-G-P-(D-Nle)-a-f-OH] ([pGlu]RCRLSCKGP[dNle][dA][dF]-OH; disulfide 3-7) gave a half-life of over 1000 min. `CCCC[C@@H](NC(=O)[C@@H]1CCCN1C(=O)CNC(=O)[C@H](CCCCN)NC(=O)[C@@H]1CSSC[C@H](NC(=O)[C@H](CCCNC(=N)N)NC(=O)[C@@H]2CCC(=O)N2)C(=O)N[C@@H](CCCNC(=N)N)C(=O)N[C@@H](CC(C)C)C(=O)N[C@@H](CO)C(=O)N1)C(N)=O` [Example 25, pE-R-C*-R-L-S-C*-K-G-P-(D-Nle)-NH2] ([pGlu]RCRLSCKGP[dNle]-NH2; disulfide 3-7): the half-life was over 1000 min. The same measure, in the same setting: the result for `CCCC[C@@H](NC(=O)[C@@H]1CCCN1C(=O)CNC(=O)[C@H](CCCCN)NC(=O)[C@@H]1CSSC[C@@H](NC(=O)[C@H](CCCNC(=N)N)NC(=O)[C@@H]2CCC(=O)N2)C(=O)N[C@@H](CCCNC(=N)N)C(=O)N[C@@H](CC(C)C)C(=O)N[C@@H](CO)C(=O)N1)C(=O)N[C@H](CC)C(=O)N[C@H](Cc1ccccc1)C(=O)O` [Example 27, pE-R-c*-R-L-S-C*-K-G-P-(D-Nle)-(D-abu)-f-OH] ([pGlu]R[dC]RLSCKGP[dNle][dAbu][dF]-OH; disulfide 3-7) reads 82 min; that for `CC(=O)N[C@@H]1CCSSCC[C@@H](C(=O)N[C@@H](CCCCN)C(=O)NCC(=O)N2CCC[C@H]2C(=O)N[C@H](Cc2ccccc2)C(=O)N[C@H](C)C(=O)N[C@H](Cc2ccccc2)C(=O)O)NC(=O)[C@H](CO)NC(=O)[C@H](CC(C)C)NC(=O)[C@H](CCCNC(=N)N)NC(=O)[C@@H]2CCCN2C(=O)[C@H](CCCNC(=N)N)NC1=O` [Example 18, Ac-(D-hC)*-R-P-R-L-S-(hC)*-K-G-P-f-a-f-OH] (Ac-[d(hCys)]RPRLS[hCys]KGP[dF][dA][dF]-OH; disulfide 1-7), 50 min. Turning to `CCCC[C@H](NC(=O)[C@@H]1CCCN1C(=O)CNC(=O)[C@H](CCCCN)NC(=O)[C@@H]1CSSC[C@H](NC(C)=O)C(=O)N[C@@H](CCCNC(=N)N)C(=O)N2CCC[C@H]2C(=O)N[C@@H](CCCNC(=N)N)C(=O)N[C@@H](CC(C)C)C(=O)N[C@@H](CO)C(=O)N1)C(=O)NCCc1ccccc1` [Example 11, Ac-C*-R-P-R-L-S-C*-K-G-P-Nle-NH(Phenethyl)] (Ac-CRPRLSCKGP[Nle]-NHPhenethyl; disulfide 1-7), the half-life amounted to 32.8 min. In the case of `CCCC[C@H](NC(=O)[C@@H]1CCCN1C(=O)CNC(=O)[C@H](CCCCN)NC(=O)[C@@H]1CSSC[C@H](NC(=O)[C@@H]2CCCN2C(=O)[C@H](CCCNC(=N)N)NC(=O)[C@@H]2CCC(=O)N2)C(=O)N[C@@H](CC(C)C)C(=O)N[C@@H](CO)C(=O)N1)C(=O)NCCc1ccccc1` [Example 31, pE-R-P-C*-L-S-C*-K-G-P-Nle-NH(Phenethyl)], the half-life turned out to be 43.1 min. For the compound `CCCC[C@@H](NC(=O)[C@@H]1CCCN1C(=O)CNC(=O)[C@H](CCCCN)NC(=O)[C@@H]1CCSSCC[C@@H](NC(=O)[C@@H]2CCCN2C(=O)[C@H](CCCNC(=N)N)NC(=O)[C@@H]2CCC(=O)N2)C(=O)N[C@@H](CC(C)C)C(=O)N[C@@H](CO)C(=O)N1)C(=O)N[C@H](CCC)C(=O)N[C@H](Cc1ccccc1)C(=O)O` [Example 38, pE-R-P-(D-hC)*-L-S-hC*-K-G-P-(D-Nle)-(D-Nva)-f-OH] ([pGlu]RP[d(hCys)]LS[hCys]KGP[dNle][dNva][dF]-OH; disulfide 4-7), the half-life worked out at 41 min. On the same count and under the same terms, as for `CCCC[C@H](NC(=O)[C@@H]1CCCN1C(=O)CNC(=O)[C@H](CCCCN)NC(=O)[C@H]1CCSSCC[C@@H](NC(C)=O)C(=O)N[C@@H](CCCNC(=N)N)C(=O)N2CCC[C@H]2C(=O)N[C@@H](CCCNC(=N)N)C(=O)N[C@@H](CC(C)C)C(=O)N[C@@H](CO)C(=O)N1)C(=O)N1CCC[C@H]1C(=O)N[C@@H](Cc1ccccc1)C(=O)O` [Example 17, Ac-(D-hC)*-R-P-R-L-S-(D-hC)*-K-G-P-Nle-P-F-OH] (Ac-[d(hCys)]RPRLS[d(hCys)]KGP[Nle]PF-OH; disulfide 1-7), the figure is 11.4 min.

Staying with this data set, now noted: rat, read-out: Surrogate activity-based Plasma stability t½.
On to `CCCC[C@H](NC(=O)[C@@H]1CCCN1C(=O)CNC(=O)[C@H](CCCCN)NC(=O)[C@@H]1CSSC[C@H](NC(C)=O)C(=O)N[C@@H](CCCNC(=N)N)C(=O)N2CCC[C@H]2C(=O)N[C@@H](CCCNC(=N)N)C(=O)N[C@@H](CC(C)C)C(=O)N[C@@H](CO)C(=O)N1)C(=O)N1CCC[C@H]1C(=O)N(C)CCc1ccccc1` [Example 9, Ac-C*-R-P-R-L-S-C*-K-G-P-Nle-P-NMe(Phenethyl)] (Ac-CRPRLSCKGP[Nle]P-{N(Me)CH2CH2Ph}; disulfide 1-7), for which the half-life was determined as 109 min.
